Assays:
Schistosoma mansoni [1] = experiment: Antischistosomal activity against Schistosoma mansoni incubated for 24 hrs by MTT assay; format: functional, organism-based
Schistosoma mansoni [2] = experiment: Antischistosomal activity against Schistosoma mansoni assessed as worm death at <= 100 uM measured within 72 hrs relative to control; format: functional; settings: dose microM <=100
Schistosoma mansoni [3] = experiment: Antischistosomal activity against Schistosoma mansoni assessed as tegument damage at <=100 uM measured within 72 hrs relative to control; format: functional; settings: dose microM <=100
Schistosoma mansoni [4] = experiment: Antischistosomal activity against Schistosoma mansoni assessed as reduction in worm motor activity at <=100 uM measured within 72 hrs relative to control; format: functional; set-up: scale not given: the % may be the effect or the level left; settings: dose microM <=100
Schistosoma mansoni [5] = experiment: Antischistosomal activity against larva Schistosoma mansoni infected in ICR mouse assessed as reduction in worm burden at 8 mg/kg, ip administered for 5 consecutive days; format: functional; set-up: scale not given: the % may be the effect or the level left
Schistosoma mansoni [6] = experiment: Antischistosomal activity against juvenile Schistosoma mansoni infected in ICR mouse assessed as reduction in worm burden at 8 mg/kg, ip administered for 5 consecutive days; format: functional; set-up: scale not given: the % may be the effect or the level left
Schistosoma mansoni [7] = experiment: Antischistosomal activity against adult Schistosoma mansoni infected in ICR mouse assessed as reduction in worm burden at 8 mg/kg, ip administered for 5 consecutive days; format: functional; set-up: scale not given: the % may be the effect or the level left
Schistosoma japonicum [8] = experiment: Antischistosomal activity against larva Schistosoma japonicum infected in ICR mouse assessed as reduction in worm burden at 8 mg/kg, ip administered for 5 consecutive days; format: functional; set-up: scale not given: the % may be the effect or the level left
Schistosoma japonicum [9] = experiment: Antischistosomal activity against juvenile Schistosoma japonicum infected in ICR mouse assessed as reduction in worm burden at 8 mg/kg, ip administered for 5 consecutive days; format: functional; set-up: scale not given: the % may be the effect or the level left
Schistosoma japonicum [10] = experiment: Antischistosomal activity against adult Schistosoma japonicum infected in ICR mouse assessed as reduction in worm burden at 8 mg/kg, ip administered for 5 consecutive days; format: functional; set-up: scale not given: the % may be the effect or the level left
Schistosoma mansoni [11] = experiment: Antischistosomal activity against Schistosoma mansoni BH infected in Balb/C mouse assessed as reduction in worm burden at 100 mg/kg, po measured after 2 weeks by Kato-Katz quantitative method; format: functional; set-up: Activity: scale not given: the % may be the effect or the level left
Schistosoma mansoni [12] = experiment: Antischistosomal activity against Schistosoma mansoni BH assessed as worm death at 12.5 to 100 uM measured up to 72 hrs by light microscopic method relative to control; format: functional; settings: dose 12.5-100 µM, time hrs <=72
Schistosoma mansoni [13] = experiment: Antischistosomal activity against Schistosoma mansoni BH assessed as tegument damage at 12.5 to 100 uM measured up to 72 hrs by confocal laser scanning microscopic method relative to control; format: functional; settings: dose 12.5-100 µM, time hrs <=72
Schistosoma mansoni [14] = experiment: Antischistosomal activity against Schistosoma mansoni BH assessed as reduction in motor activity at 12.5 to 100 uM measured up to 72 hrs by light microscopic method relative to control; format: functional; set-up: scale not given: the % may be the effect or the level left; settings: dose 12.5-100 µM, time hrs <=72
Schistosoma mansoni [15] = experiment: Antischistosomal activity against Schistosoma mansoni Liberian assessed as worm death at 20 uM incubated for 72 hrs measured every 24 hrs by microscopic method relative to control; format: functional
Schistosoma mansoni [16] = experiment: Antischistosomal activity against Schistosoma mansoni Liberian assessed as reduction in worm motor activity incubated for 72 hrs measured every 24 hrs by microscopic method relative to control; format: functional, organism-based
Schistosoma mansoni [17] = experiment: Antischistosomal activity against Schistosoma mansoni Liberian assessed as reduction in egg production incubated for 72 hrs measured every 24 hrs; format: functional, organism-based
Schistosoma mansoni [18] = experiment: Antischistosomal activity against Schistosoma mansoni Egyptian assessed as worm death at 50 to 200 ug/ml incubated upto 72 hrs by stereomicroscopy; format: functional; settings: dose 50-200 µg/ml; time hrs <=72; at 50 to 200 µg/mL
Schistosoma mansoni [19] = experiment: Antischistosomal activity against Schistosoma mansoni Egyptian assessed as tegument damage at 50 to 200 ug/ml incubated upto 72 hrs by inverted microscopy; format: functional; settings: dose 50-200 µg/ml; time hrs <=72; at 50 to 200 µg/mL
Schistosoma mansoni [20] = experiment: Antischistosomal activity against Schistosoma mansoni Egyptian assessed as reduction in motor activity at 50 to 200 ug/ml incubated upto 72 hrs by stereomicroscopy; format: functional; set-up: scale not given: the % may be the effect or the level left; settings: dose 50-200 µg/ml; time hrs <=72; at 50 to 200 µg/mL
Schistosoma mansoni [21] = experiment: Antischistosomal activity against Schistosoma mansoni Egyptian assessed as reduction in egg production at 50 to 200 ug/ml incubated upto 72 hrs by microscopic method relative to control; format: functional; set-up: scale not given: the % may be the effect or the level left; settings: dose 50-200 µg/ml; time hrs <=72; at 50 to 200 µg/mL
Schistosoma mansoni [22] = experiment: Antischistosomal activity against Schistosoma mansoni infected in MF1 swiss albino mouse assessed as worm burden reduction at 200 mg/kg, po measured after 2 weeks by stereomicroscopy relative to control; format: functional; set-up: scale not given: the % may be the effect or the level left
Schistosoma mansoni [23] = experiment: Antischistosomal activity against Schistosoma mansoni LE schistosomula measured every 24 hrs for 72 hrs by inverted microscopy; format: functional
Schistosoma mansoni [24] = experiment: Antischistosomal activity against adult Schistosoma mansoni LE measured every 24 hrs for 72 hrs by inverted microscopy; format: functional
Schistosoma mansoni [25] = experiment: Antischistosomal activity against juvenile Schistosoma mansoni LE measured every 24 hrs for 72 hrs by inverted microscopy; format: functional
Schistosoma mansoni [26] = experiment: Antischistosomal activity against Schistosoma mansoni LE assessed as reduction in egg population at 100 uM measured after 72 hrs by inverted microscopy relative to control; format: functional; set-up: scale not given: the % may be the effect or the level left
Schistosoma mansoni [27] = experiment: Antischistosomal activity against Schistosoma mansoni LE assessed as reduction in egg development by measuring developed eggs at 100 uM measured after 5 days relative to control; format: functional; set-up: scale not given: the % may be the effect or the level left; settings: time 5 day
Schistosoma mansoni [28] = experiment: Antischistosomal activity against Schistosoma mansoni LE infected in BALB/c mouse assessed as reduction in worm burden at 10 mg/kg, ip administered for 5 consecutive days starting from day 1 post infection by microscopic method relative to control; format: functional; set-up: scale not given: the % may be the effect or the level left
Schistosoma mansoni [29] = experiment: Antischistosomal activity against Schistosoma mansoni LE infected in BALB/c mouse assessed as reduction in worm burden at 10 mg/kg, ip administered for 5 consecutive days starting from day 23 by microscopic method relative to control; format: functional; set-up: scale not given: the % may be the effect or the level left
Schistosoma mansoni [30] = experiment: Antischistosomal activity against Schistosoma mansoni LE infected in BALB/c mouse assessed as reduction in worm burden at 10 mg/kg, ip administered for 5 consecutive days starting from day 37 by microscopic method relative to control; format: functional; set-up: scale not given: the % may be the effect or the level left
Schistosoma mansoni [31] = experiment: Antischistosomal activity against Schistosoma mansoni LE infected in BALB/c mouse assessed as reduction in worm burden at 50 mg/kg, ip administered for 5 consecutive days starting from day 1 post infection by microscopic method relative to control; format: functional; set-up: scale not given: the % may be the effect or the level left
Schistosoma mansoni [32] = experiment: Antischistosomal activity against Schistosoma mansoni LE infected in BALB/c mouse assessed as reduction in worm burden at 50 mg/kg, ip administered for 5 consecutive days starting from day 23 post infection by microscopic method relative to control; format: functional; set-up: scale not given: the % may be the effect or the level left
Schistosoma mansoni [33] = experiment: Antischistosomal activity against Schistosoma mansoni LE infected in BALB/c mouse assessed as reduction in worm burden at 50 mg/kg, ip administered for 5 consecutive days starting from day 37 post infection by microscopic method relative to control; format: functional; set-up: scale not given: the % may be the effect or the level left
Schistosoma mansoni [34] = experiment: Antischistosomal activity against Schistosoma mansoni LE infected in BALB/c mouse assessed as reduction in worm burden at 100 mg/kg, ip administered for 5 consecutive days starting from day 1 post infection by microscopic method relative to control; format: functional; set-up: scale not given: the % may be the effect or the level left
Schistosoma mansoni [35] = experiment: Antischistosomal activity against Schistosoma mansoni LE infected in BALB/c mouse assessed as reduction in worm burden at 100 mg/kg, ip administered for 5 consecutive days starting from day 23 post infection by microscopic method relative to control; format: functional; set-up: scale not given: the % may be the effect or the level left
Schistosoma mansoni [36] = experiment: Antischistosomal activity against Schistosoma mansoni LE infected in BALB/c mouse assessed as reduction in worm burden at 100 mg/kg, ip administered for 5 consecutive days starting from day 37 post infection by microscopic method relative to control; format: functional; set-up: scale not given: the % may be the effect or the level left
Schistosoma mansoni [37] = experiment: Antischistosomal activity against Schistosoma mansoni LE infected in BALB/c mouse assessed as reduction in egg burden at 10 mg/kg, ip administered for 5 consecutive days starting from day 1 post infection by microscopic method relative to control; format: functional; set-up: scale not given: the % may be the effect or the level left
Schistosoma mansoni [38] = experiment: Antischistosomal activity against Schistosoma mansoni LE infected in BALB/c mouse assessed as reduction in egg burden at 10 mg/kg, ip administered for 5 consecutive days starting from day 23 post infection by microscopic method relative to control; format: functional; set-up: scale not given: the % may be the effect or the level left
Schistosoma mansoni [39] = experiment: Antischistosomal activity against Schistosoma mansoni LE infected in BALB/c mouse assessed as reduction in egg burden at 10 mg/kg, ip administered for 5 consecutive days starting from day 37 post infection by microscopic method relative to control; format: functional; set-up: scale not given: the % may be the effect or the level left
Schistosoma mansoni [40] = experiment: Antischistosomal activity against Schistosoma mansoni LE infected in BALB/c mouse assessed as reduction in egg burden at 50 mg/kg, ip administered for 5 consecutive days starting from day 1 post infection by microscopic method relative to control; format: functional; set-up: scale not given: the % may be the effect or the level left
Schistosoma mansoni [41] = experiment: Antischistosomal activity against Schistosoma mansoni LE infected in BALB/c mouse assessed as reduction in egg burden at 50 mg/kg, ip administered for 5 consecutive days starting from day 23 post infection by microscopic method relative to control; format: functional; set-up: scale not given: the % may be the effect or the level left
Schistosoma mansoni [42] = experiment: Antischistosomal activity against Schistosoma mansoni LE infected in BALB/c mouse assessed as reduction in egg burden at 50 mg/kg, ip administered for 5 consecutive days starting from day 37 post infection by microscopic method relative to control; format: functional; set-up: scale not given: the % may be the effect or the level left
Schistosoma mansoni [43] = experiment: Antischistosomal activity against Schistosoma mansoni LE infected in BALB/c mouse assessed as reduction in egg burden at 100 mg/kg, ip administered for 5 consecutive days starting from day 1 post infection by microscopic method relative to control; format: functional; set-up: scale not given: the % may be the effect or the level left
Schistosoma mansoni [44] = experiment: Antischistosomal activity against Schistosoma mansoni LE infected in BALB/c mouse assessed as reduction in egg burden at 100 mg/kg, ip administered for 5 consecutive days starting from day 23 post infection by microscopic method relative to control; format: functional; set-up: scale not given: the % may be the effect or the level left
Schistosoma mansoni [45] = experiment: Antischistosomal activity against Schistosoma mansoni LE infected in BALB/c mouse assessed as reduction in egg burden at 100 mg/kg, ip administered for 5 consecutive days starting from day 37 post infection by microscopic method relative to control; format: functional; set-up: scale not given: the % may be the effect or the level left

C/C=C/c1cc(OC)c2c(c1)C(C)C(c1ccc(O)c(OC)c1)O2 (stereo not given) [DEHRODIISOEUGENOL]
IC50 (Schistosoma mansoni [1]): 53.5 µM | mortality (Schistosoma mansoni [2]): 100% | Activity (Schistosoma mansoni [3]): 25% | Activity (Schistosoma mansoni [4]): 100%

C[C@@H]1O[C@@H](O[C@@H]2C[C@@H](O[C@@H]3O[C@H](CO)[C@@H](O)[C@H](O)[C@H]3O)CO[C@H]2O[C@H]2CC[C@]3(C)[C@H]4CC=C5[C@@H]6CC(C)(C)CC[C@]6(C(=O)O)CC[C@@]5(C)[C@]4(C)CC[C@H]3C2(C)C)[C@H](O)[C@H](O)[C@H]1O
Activity (Schistosoma mansoni [5]): 88.6% | Activity (Schistosoma mansoni [6]): 68.3% | Activity (Schistosoma mansoni [7]): 70.6% | Activity (Schistosoma japonicum [8]): 90% | Activity (Schistosoma japonicum [9]): 59.9% | Activity (Schistosoma japonicum [10]): 53.2%

C=C1C(=O)O[C@@H]2C3O[C@]3(C)CC/C=C(\C)CC[C@@H]12 (stereo not given in full)
Activity (Schistosoma mansoni [11]): 64.1% | mortality (Schistosoma mansoni [12]): 100% | Activity (Schistosoma mansoni [13]): 100% | Activity (Schistosoma mansoni [14]): 100%

C[C@@H](N)CCCCCC/C=C\CCCCCCCCN
mortality at 20 µM (Schistosoma mansoni [15]): 100% | EC50 (Schistosoma mansoni [16]): 8.8 µM | EC50 (Schistosoma mansoni [17]): 3.6 µM

O=S(=O)(c1ccc(O)c2ncccc12)C1C(c2ccccc2)=Nc2ccncc2N=C1c1ccccc1 (stereo not given)
mortality (Schistosoma mansoni [18]): 100% | Activity (Schistosoma mansoni [19]): 20% | Activity (Schistosoma mansoni [20]): 100% | Activity (Schistosoma mansoni [21]): 54% | Activity (Schistosoma mansoni [22]): 81.2%

O=C1OC[C@@H](Cc2cc3c(cc2[N+](=O)[O-])OCO3)[C@@H]1Cc1cc2c(cc1[N+](=O)[O-])OCO2
LC50 (Schistosoma mansoni [23]): 20.4 µM | LC50 (Schistosoma mansoni [24]): 102 µM | LC50 (Schistosoma mansoni [25]): 180 µM | Activity (Schistosoma mansoni [26]): >83% | Activity (Schistosoma mansoni [27]): <10% | Activity (Schistosoma mansoni [28]): 33% | Activity (Schistosoma mansoni [29]): 33% | Activity (Schistosoma mansoni [30]): 33% | Activity (Schistosoma mansoni [31]): 36% | Activity (Schistosoma mansoni [32]): 36% | Activity (Schistosoma mansoni [33]): 36% | Activity (Schistosoma mansoni [34]): 39% | Activity (Schistosoma mansoni [35]): 39% | Activity (Schistosoma mansoni [36]): 39% | Activity (Schistosoma mansoni [37]): 40% | Activity (Schistosoma mansoni [38]): 40% | Activity (Schistosoma mansoni [39]): 40% | Activity (Schistosoma mansoni [40]): 52% | Activity (Schistosoma mansoni [41]): 52% | Activity (Schistosoma mansoni [42]): 52% | Activity (Schistosoma mansoni [43]): 16% | Activity (Schistosoma mansoni [44]): 16% | Activity (Schistosoma mansoni [45]): 16%

— ChEMBL document CHEMBL4811216, “Chemotherapy for human schistosomiasis: how far have we come? What's new? Where do we go from here?” (RSC Med Chem, 2020)
